US6303596A, “Use of taurolidine for treatment of leukemias” (priority 2000, dated 2001)

Experiments:
Lymphocytes = assay: TUNEL flow cytometry, lymphocytes in PBMC, culture medium; format: cell-based, human; details: 6 h
Method: FIG. 14A and FIG. 14B are terminal deoxytransferase-mediated deoxyuridine-triphosphate-biotin nick end labeling assay (TUNEL) analyses of control cells and taurolidine-treated PBMC, respectively. Cells were incubated with 100 μg/ml taurolidine for six hours and processed for TUNEL analysis as given below. Parallel samples were stained with FITC-conjugated anti-CD14 and propidium iodide (PI) as described below. Ten thousand events were recorded per sample. TUNEL signal (x-axis) is a measure of DNA fragmentation, which FSC (y-axis) is related to cell size. TUNEL-negative lymphocytes are bounded by the rectangle R1, while TUNEL-negative monocytes (CD14 positive cells) are bounded by the rectangle R2. The vertical line indicates demarcation between TUNEL-negative and TUNEL-positive cells. There were minimal numbers of PI-positive cells in the six hour samples (see Table IV).
(§1) In the second method, DNA fragmentation was detected via TUNEL assay according to the manufacturer's instructions. With this methodology, 2×10^6 cells were fixed with 2% paraformaldehyde, permeabilized with 0.1% Triton X-100/0.1% citrate, incubated at 37° C. with terminal deoxynucleotidyl transferase and FITC-dUTP, rinsed and analyzed by flow cytometry. Enhanced FITC signal indicates apoptosis-specific DNA fragmentation. Gavriali, et al, "Identification of programmed cell death in situ via specific labeling of nuclear DNA fragmentation," J Cell Biol 119:493 (1992). Parallel aliquots of unfixed cells were treated with PI and FITC-conjugated anti-CD14 and analyzed by flow cytometry, in order to identify cells with permeable cell membranes (since PI binds to DNA but is excluded from cells with intact plasma membranes) and also to determine the cell-specificity of the apoptotic signal.
A Becton-Dickinson FACSCalibur instrument was used for flow cytometric analysis of cells. Assessment of cell diameter (forward scatter; FCS) and granularity (side scatter; SSC).was carried out on unfixed cells. Discrimination between lymphocytes and monocytes was made possible by their characteristic differences in FSC and SSC, and confirmed by staining monocytes with FITC-labeled anti-CD14 antibodies and lymphocytes with a combination of FITC-conjugated anti-CD3 and PE-conjugated anti-CD19. After incubation with taurolidine (with or without concomitant LPS treatment), cells were rinsed twice in phosphate-buffered saline containing 0.1% bovine serum albumin (PBSA) and 1×10^6 cells were resuspended in 0.1 ml PBSA. After 5 μl FITC-conjugated anti-CD14 was added, cells were incubated in the dark on ice for 15 minutes and then centrifuged at 250×g. Cells were resuspended in 500 μl PBSA containing 5 μg/ml PI and subjected to flow cytometry.
Consequently, TUNEL analysis was performed on PBMC at 3, 6, or 24 hours after treatment with 25 to 100 μg/ml taurolidine. Aliquots of harvested cells were also labeled with FITC-conjugated anti-CD14 antibodies and PI, which allowed identification of monocytes (CD14-positive cells) and cells with damaged cell membranes (PI-positive cells). […] Thus, nearly 75% of the monocytes were TUNEL-positive following treatment with 100 μg/ml taurolidine for six hours. Confirmation that the TUNEL-positive cells were monocytes was obtained by staining with FITC-conjugated anti-CD14.
^a Analysis by flow cytometry after staining cells with FITC-conjugated
anti-CD14 and PI, and processing for TUNEL. Data are mean ± SD of two
^b Percent of cells present in the TUNEL-negative region in control

[1] = propidium iodide flow cytometry, PBMC all cells, whole blood; format: cell-based; details: human, mean ± SD of 2 experiments
Method: FIGS. 15A, 15B, and 15C depict TUNEL analysis of PBMC treated with taurolidine in whole blood, for control cells, taurolidine-treated cells, and anisomycin-treated cells, respectively . Cells were incubated with 500 μg/ml taurolidine for 4 hours, resuspended in fresh medium, incubated for two hours further and processed for TUNEL analysis. Parallel samples were stained with FITC-conjugated anti-CD14 and PI as described herein. Ten thousand events were recorded per sample. TUNEL signal (x -axis) is a measure of DNA fragmentation, while FSC (y-axis) is related to cell size. TUNEL-negative lymphocytes are bounded by rectangle R 1, while TUNEL-negative monocytes (CD 14 positive cells) are bounded by rectangle R2. […]
as §1, with “Enhanced FITC signal indicates apoptosis-specific DNA fragmentation. Gavriali, et al, "Identification of programmed cell death in situ via specific labeling of nuclear DNA fragmentation," J Cell Biol 119:493 (1992).” left out, “signal. […]” for “signal.”

all cells tested = assay: apoptogenic efficiency in all cells tested; format: cell-based, human
Method: In another study, TUNEL assays were performed on all cell lines 6 hours after cells were initially exposed to taurolidine (cells were treated for 4 hours, rinsed, and then incubated for 2 more hours before TUNEL assay was performed).
. Taurolidine and anisomycin induced apoptosis in MM6, HL-60, and Jurkat cells (Table VIII). MM6 and HL-60 cells were similarly effected, with >80% TUNEL-positive cells after 6 hours. Jurkat cells were less sensitive, with approximately 50% of cells induced to undergo apoptosis after taurolidine treatment. After 6 hours, 73% of anisomycin-treated REH cells were apoptotic, with less than 20% of taurolidine-treated REH cells being TUNEL-positive. However, assay of cells 24 hours after […]

O=S1(=O)CCN(CN2CCS(=O)(=O)NC2)CN1 [taurolidine, 4,4'-methylenebis(perhydro-1,2,4-thiadiazin 1,1-dioxide)]
viability at 25 µg/mL (Lymphocytes; Homo sapiens, Lymphocyte, lymphocytes, 25 μg/ml, percent of control, read-out: % TUNEL-Negative): 100 ± 7%
viability at 50 µg/mL (Lymphocytes; Homo sapiens, Lymphocyte, lymphocytes, 50 μg/ml, percent of control, read-out: % TUNEL-Negative): 99.8 ± 3.4%
viability at 100 µg/mL (Lymphocytes; Homo sapiens, Lymphocyte, lymphocytes, 100 μg/ml, percent of control, read-out: % TUNEL-Negative): 102 ± 3.1%
cells remaining TUNEL-negative (Lymphocytes; lymphocytes, up to 100 μg/ml taurolidine): ~100%
apoptosis in lymphocytes (Lymphocytes; up to 100 μg/ml taurolidine, culture medium): did not induce detectable apoptosis
cytotoxicity at 6 h ([1]; 200 μg/ml): 1.6 ± 0.6%
cytotoxicity at 6 h ([1]; 500 μg/ml): 1.4 ± 0.2%
apoptogenic efficiency versus anisomycin (all cells tested): as efficient an apoptogenic agent as the protein synthesis inhibitor anisomycin
